Several values for one entry are separate records, joined by “and”; a condition that tells them apart may be missing. Equal entries are not always repeated.
System: mouse EAE model
Test: Experimental Autoimmune Encephalomyelitis (EAE) model, semi-therapeutic, 28 day
Format: in vivo
Conditions: for End % body weight +/− SD: Day 27 relative to Day −1; for End score +/− SD: Day 28; for Mean day of EAE onset: after immunization, mice which developed EAE; for Inflammatory foci +/− SD: per spinal cord section; for Demyelination (LFB) +/− SD: score per section
Description: EAE was induced in 60 mice using Hooke Kit™ MOG35-55/CFA Emulsion PTX (Hooke Laboratories, Lawrence Mass.), catalog number EK-0110, lot number 0104, per manufacturer's recommended protocol, except that pertussis toxin was diluted with phosphate buffered saline to achieve 1.4× and 1.3× solution (starting from the 1.5× solution in the kit). This was done to optimize disease severity for this particular study.
Mice were injected subcutaneously, at two sites in the back, with the emulsion component of the kit (containing MOG35-55). One site of injection was in the area of the upper back, approximately 1 cm caudal of the neck line. The second site was in the area of the lower back, approximately 2 cm cranial of the base of the tail. Injection volume was 0.1 mL at each site. Within 2 hours of the injection of emulsion, and then again 24 hours after the injection of emulsion, the pertussis toxin component of the kit was administered intraperitoneally. Volume of each injection was 0.1 mL.
Vehicle for Group 2 (FTY720) was water and 2% ethanol. Vehicle for all other groups was water, 0.5% CMC (low viscosity), and 0.05% Tween80. Mice were dosed at the same time every day, +/−1 hour. The last day of dosing was Day 27 after immunization.
Readouts were EAE scores and changes in body weight. Mice were scored daily from Day 7 to Day 28, and body weights were measured three times/week (Monday, Wednesday and Friday), starting on Day −1.
EAE was scored on scale 0 to 5: • 0 No obvious changes in motor functions of the mouse in comparison to non-immunized mice. When picked up by the tail, the tail has tension and is erect. Hind legs are usually spread apart. When the mouse is walking, there is no gait or head tilting. • 1 Limp tail. When the mouse is picked up by the tail, instead of being erect, the whole tail drapes over finger. • 2 Limp tail and weakness of hind legs. When mouse is picked up by tail, legs are not spread apart, but held closer together. When the mouse is observed walking, it has a clearly apparent wobbly walk. • 3 Limp tail and complete paralysis of hind legs (most common); or limp tail with paralysis of one front and one hind leg; or all of: severe head tilting, walking only along the edges of the cage, pushing against the cage wall, and spinning when picked up by the tail. • 4 Limp tail, complete hind leg and partial front leg paralysis. Mouse is minimally moving around the cage but appears alert and feeding Usually, euthanasia is recommended after the mouse scores level 4 for 2 days. When the mouse is euthanized because of severe paralysis, score of 5 is entered for that mouse for the rest of the experiment. • 5 Complete hind and complete front leg paralysis, no movement around the cage; or mouse is spontaneously rolling in the cage; or mouse is found dead due to paralysis.
At the end of the study 3 luxol fast blue (LFB) stained sections and 3 H&E sections, from lumbar, thoracic, and cervical spinal cord of all mice in Groups 1, 2, 3, and 6 and the 3 naïve mice were prepared and analyzed.
Inflammatory foci were counted in each H&E stained section. Each group of approximately 20 cells was counted as one focus. Foci larger than 20 cells were counted based on an estimate of how many foci of 20 cells were present.
The demyelination score represents an estimate of demyelinated area for each section as follows. For LFB stained slides, the demyelinated area was estimated based on intensity of blue staining of myelin. For H&E stained sections, demyelinated area was estimated by looking for interruption of normal structure—pallor and vacuolation consistent with edema and demyelination, and dilated axons. • 0—no demyelination (less than 5% demyelinated area) • 1—5 to 20% demyelinated area • 2—20 to 40% demyelinated area • 3—40 to 60% demyelinated area • 4—60 to 80% demyelinated area • 5—80 to 100% demyelinated area.
The number of apoptotic cells in each of the three H&E sections was determined.

For `C[C@H](Nc1ncnc2[nH]cnc12)c1cc2cccc(Cl)c2c(=O)n1-c1ccccc1` [Compound 292], the “Apoptotic cells, average per section+/−SD” value (0.3 mg/kg QD p.o.) was 1.7+/−0.9, the “Demyelination score (H&E sections), average per section+/−SD” value (0.3 mg/kg QD p.o.) was 1.5+/−0.5 and the “MMS +/− SD” value (0.3 mg/kg QD p.o.) was 2.50+/−0.85. For the same compound, the “Median Day of Onset” value (0.3 mg/kg QD p.o.) was 11.5 days, the “End % body weight +/− SD” value (0.3 mg/kg QD p.o.) was 96.1+/−11.8% and the “End score +/− SD” value (0.3 mg/kg QD p.o.) was 1.60+/−1.02. For the same compound, the “Mean day of EAE onset” value (0.3 mg/kg QD p.o.) was 11.3 ± 0.4 days, the “Inflammatory foci +/− SD” value (0.3 mg/kg QD p.o.) was 2.9+/−1.5 and the “Demyelination (LFB) +/− SD” value (0.3 mg/kg QD p.o.) was 1.2+/−0.7. The “MMS +/− SD” value (1 mg/kg QD p.o.) was 2.70+/−0.72, the “Median Day of Onset” value (1 mg/kg QD p.o.) was 11 days and 11.0 days and the “End % body weight +/− SD” value (1 mg/kg QD p.o.) was 99.0+/−7.4%. For the same compound, the “End score +/− SD” value (1 mg/kg QD p.o.) was 1.40+/−0.81, the “Mean day of EAE onset” value (1 mg/kg QD p.o.) was 12.5 ± 1.0 days and the “MMS +/− SD” value (3 mg/kg QD p.o.) was 3.40+/−0.21. For the same compound, the “Median Day of Onset” value (3 mg/kg QD p.o.) was 12 days and 12.0 days, the “End % body weight +/− SD” value (3 mg/kg QD p.o.) was 87.7+/−6.4% and the “End score +/− SD” value (3 mg/kg QD p.o.) was 2.65+/−0.67. For the same compound, the “Mean day of EAE onset” value (3 mg/kg QD p.o.) was 12.1 ± 0.7 days, the “Apoptotic cells, average per section+/−SD” value (10 mg/kg QD p.o.) was 2.2+/−1.0 and the “Demyelination score (H&E sections), average per section+/−SD” value (10 mg/kg QD p.o.) was 1.9+/−0.8. The “MMS +/− SD” value (10 mg/kg QD p.o.) was 2.55+/−0.76, the “Median Day of Onset” value (10 mg/kg QD p.o.) was 14 days and 14.0 days and the “End % body weight +/− SD” value (10 mg/kg QD p.o.) was 95.6+/−8.5%. For the same compound, the “End score +/− SD” value (10 mg/kg QD p.o.) was 1.65+/−0.85, the “Mean day of EAE onset” value (10 mg/kg QD p.o.) was 14.4 ± 1.5 days and the “Inflammatory foci +/− SD” value (10 mg/kg QD p.o.) was 5.2+/−3.2. The “Demyelination (LFB) +/− SD” value (10 mg/kg QD p.o.) was 1.6+/−0.8.
